According to patent US20250102494A1, “COMPOSITION FOR PREDICTING OXALIPLATIN DRUG EFFICACY, AND USE THEREOF” (SAMSUNG LIFE PUBLIC WELFARE FOUNDATION, priority 2022, published 2025):

System: SW620 cells
Assay: ATPlite cell viability after oxaliplatin, SW620 cells in organoid culture media
Format: cell-based
Protocol: Advanced DMEM/F12+++ (hereinafter referred to as “Ad/DF+++”) was used to produce colorectal cancer organoids. Ad/DF+++ was refrigerated at 4° C. until use, and was used in a cold state during cell washing. Ad/DF+++ medium containing the reagents shown in Table 1 below along with Ad/DF 1× (Gibco) was prepared.
After preparing the Ad/DF+++ medium containing the above reagents, an appropriate amount of Matrigel (Corning #356231) was added so that the ratio between Matrigel and cells suspended in the Ad/DF+++ medium was 7:3. Then, the cells were plated on low attachment well plates at an appropriate density. The density and the type and number of well plates were determined according to the characteristics of each cell type. The medium was prepared according to the composition shown in Table 2 below, and the cells were cultured (expanded) until the required level was reached while the medium was replaced every 3 to 4 days.
If the organoids were expanded as needed for the experiment, the medium was carefully removed, taking care not to touch the Matrigel. The cells were separated from the Matrigel by pipetting about 20 times with 1 ml of cold Ad/DF+++. The cells in 1 to 4 wells per 6-well plate were collected in one 50 ml tube. If cells are collected from more than 4 wells into one tube, the Metrigel may not be washed properly. For this reason, the cells were placed in several tubes. Thereafter, Ad/DF+++ was poured to 20 to 50 ml of each tube, followed by centrifugation at 400 g for 3 minutes at 4° C. The cells were dissociated with 1 to 2 mL of TrypLE™ Express Enzyme (Gibco, 1264-013), transferred to low-attachment 24 well plates, and then treated with 10 μM of Y-27632. Next, the cells were cultured in a CO2 incubator for 5 minutes at 37° C. After pipetting about 20 times, whether the cells would be dissociated into single cells was checked by microscopic observation. If the cells were not dissociated into single cells, the culture under CO2 and pipetting processes were repeated. […] After suspending the pellet in Ad/DF+++, the cells were counted and diluted with medium according to the required number of cells. […]
Four hours after the medium change, the cells were treated with oxaliplatin, 5-FU, Irinotecan, and folinic acid. Five days after drug treatment, intracellular ATP expression was determined using the ATPlite assay kit (PerkinElmer), and the data were expressed in terms of cell viability, IC50, and AUC.
As the standard for confirming that cells are sensitive to the drug, the response of the cells to the drug was assumed to be 100%, and the luminescence value of surviving cells after drug treatment was analyzed and compared with the quantified drug response value. […]

## O=C1[O][Pt]2([NH][C@@H]3CCCC[C@H]3[NH]2)[O]C1=O [oxaliplatin]
SW620, FIG. 9
  AUC value, Ex2 compared with other organoid culture conditions: lower in the organoid culture conditions of Ex2
  AUC value, Ex3 and Ex4 compared with Ex1: no significant difference in AUC values from Ex1
SW620, FIG. 10
  IC50 value, Ex2 compared with Ex1: lower in Ex2 than in Ex1
SW620 in Ex2, log [oxaliplatin] value 1, FIG. 11
  cell viability: 50%
